Where “and” joins values, the source holds several entries; their conditions need not be identical. Identical values can stand only once.
Assays:
[1] = system: HUVEC, fibroblasts, Mel 57 and T47D cells; experiment: Cell-specificity assay: incorporation of [3H]thymidine; type: cell-based; conditions: bFGF-induced HUVEC and fibroblast proliferation vs NBCS-induced Mel 57 and T47D proliferation; FIG. 1
Method: Cell-Specificity Assay: Incorporation of [^3H]Thymidine
Confluent cultures of HUVEC, fibroblasts, Mel 57 and T47D cells were detached by trypsin/EDTA solution, and allowed to adhere and spread at an appropriate cell density on gelatine-coated dishes in M199-HEPES medium or DMEM-HEPES medium both supplemented with 10% heat-inactivated new born calve serum (NBCS) and penidillin/streptomycin. After 18 h the HUVEC and fibroblasts were stimulated with 2.5 ng/ml FGF-2 in M199-HEPES, penicillin/streptomycin, 10% NBCS and 0.1% DMSO in duplicate wells, with or without the test compounds. […] Subsequently, the cells were washed with PBS, [3H]-labelled DNA were fixed with methanol, and precipitated in 5% trichloroacetic-acid, and finally dissolved in 0.5 ml 0.3 M NaOH and counted in a liquid scintillation counter.
All outcome measures were measured in singular, i.e. one measurement per culture well. The proliferation of HUVEC, fibroblast, Mel 57, and T47D tumor cells was expressed as mean±range [3H]-thymidine incorporation (dpm) of duplicate wells.
The percentage of inhibition of FGF-2-induced HUVEC and fibroblast proliferation by the compounds was calculated as follows: [formula] […] The percentage of inhibition of the Mel 57 and T47D tumor cell proliferation by the compounds will be calculated as follows: [formula] […]

[2] = system: HUVEC; experiment: Cell morphology and proliferation assay; type: cell-based
Method: Cell Morphology and Proliferation Assay
One week before the assay, a vial with HUVEC (passage 1) was thawed and cultured (after a split ratio of 1:3) to confluence (passage 2). The confluent culture of HUVEC was detached by trypsin/EDTA solution, and allowed to adhere and spread at cell density of 10, 50 and 100% confluency on gelatine-coated dishes in M199-HEPES medium supplemented with 10% heat-inactivated NBCS, 10% human serum and penicillin/streptomycin. After 18 h the HUVEC were preincubated with the test compounds for 4 hours. Then the HUVEC were washed and restimulated in the absence or presence of the test compounds and the reference compounds with 2.5 ng/ml FGF-2 in M199-HEPES, penicillin/streptomycin, 10% NBCS, 10% human serum and 0.1% DMSO in triplicate wells for 5 (10% confluency) or 3 days (50 and 100% confluency), with or without the test compounds. The cell number was determined by image analysis (P. Koolwijk, 2001)
To investigate the mode of action of the compound on proliferating and non-proliferating HUVEC, experiments were performed on 10%, 50% and 100% confluent monolayers of HUVEC. The 10% and 50% confluent HUVEC monolayers represent the status of angiogenic endothelial cells able to proliferate and migrate when stimulated. The 100% HUVEC monolayers represent the quiescent character of the endothelial cells in the existing blood vessel. The 4-hour preincubation experiments were performed to be able to discriminate between general toxicity and the induction of apoptosis.

[3] = system: neovascularisation; experiment: Mouse anti-angiogenesis assay (bFGF sponge implant); type: in vivo; conditions: for neovascularisation in mice (percent inhibition): Days 3-9
Method: NMRI female mice (SPF Bom:NMRI) weighing 25-27 g were obtained from M&B, Ejby, Lille Skensved, Denmark. They were housed in a facility where light was controlled on a 12 hour light-dark cycle. […] The animals were fed a pelleted rodent diet (Altromin 1324, Brogarden, Denmark) ad libitum and had free access to tap water. All animals were observed daily for clinical signs.
Slow-release pellets containing 400 ng of human basic fibroblast growth factor (Innovative Research of America, Florida, USA) were circular and with a diameter of 1.5 mm. The angiogenic peptide was guarantied by the supplier to be released over a period of 10 days.
The mice were anaesthetized using inhalation anaesthesia (halothane/N2O and oxygen). The skin of the back was shaved using an electric shaver and the skin was disinfected using 70% ethanol. A 5 mm incision was made transversely in close proximity to the shoulder blades and a 2 cm pocket reaching caudally to the pelvic region was created by blunt dissection, carefully separating the skin from the fascie. A polyurethane sponge with the dimension of 8×5×3 mm containing a slow-release pellet of 400 ng bFGF was placed at the caudal end of the pocket and the incision was closed by a single or double invert suture using Perma-Hand Seide 4/0 (Johnson & Johnson, Brussels, Belgium). The animals were treated by an analgesic subcutaneous injection of carprofen 2 mg/kg.
The angiogenic response was quantitated as previously described (Lichtenberg et al., 1997, 1999 & 2002). Briefly, twenty minutes before euthanasia 1 μCi of ^125I-labelled immuno-globulin (Amersham, UK) in 50 μl of 0.9% NaCl was injected intravenously into a tail vein. The animals were euthanised by O2/CO2 asphyxiation and the skin overlying the sponge implant was removed. The sponge implant with the pellet was placed in a plastic vial containing 4% formalin and the ^125I-activity was measured in a γ-counter. Differences in angiogenic response measured as ^125I-activity in cpm were assessed by Student's t-test, grouped data, with P<0.05 regarded as statistically significant. Data was expressed as means±SEM.
Three separate experiments were conducted: Two experiments were performed with Compound a and one experiment was performed with Compound b. In the first two experiments with Compound a, 3 groups each comprising 5 animals was treated orally with Compound a at the dose levels of 0 (saline), 5 and 10 mg/kg/day (experiment 1) and with 20 and 40 mg/kg/day (experiment 2). In the third experiment, 3 groups each comprising 6 animals was treated orally with the vehicle (saline) and 80 mg/kg/day of Compound a. In all experiments the animals were treated from Days 3-9 and killed at day 10.

[4] = system: B16/F10 melanoma cells; experiment: Mouse metastasis assay; type: in vivo, mice; conditions: for Colony Count (B16 melanoma lung colonies): day 14, mean ± SEM; for % Reduction of melanoma lung colonies vs vehicle: C57BL/6 mice
Description: Female C57BL/6 mice were supplied and delivered by Charles River UK Ltd. The animals were approximately 6 weeks of age at the start of the study. The body weights at the start of dosing were in the range 10-21 g. The mice were housed in solid-bottomed plastic cages, containing wood shavings, in groups of up to 10. During acclimatization, the rooms and cages were cleaned at regular intervals to maintain hygiene. The mice were fed an expanded rodent diet ad libitum and allowed free access to mains tap water. […] (McKay, 2002).
Data was expressed as means±SEM and analysed using appropriate statistical methods. Statistical significance was assumed when P<0.05.
Two separate studies were conducted: One was performed with Compound a (experiment 1) and one with Compound b (experiment 2). In each study there were 4 treatment groups. The treatment groups were as follows:
Treatments for groups 24 were administered orally, by gavage. The dose volume used was 20 ml/kg for groups 2 and 4 and 15 ml/kg for group 3.
C57BU6 mice were injected intravenously, via a tail vein, with 0.1 ml of a suspension of B16/F10 melanoma cells (approximately 3×10^5 cells/mouse) on day 0. With the exception of the untreated group, animals were dosed orally, by gavage, or intravenously, according to their allocated treatment group once daily, from day −2 to day 10 (13 administrations). The animals were killed on day 14 (14 days after injection of the tumour cells). The lungs from each animal were removed and weighed prior to fixing in Bouin's solution.

[5] = 60 mg/kg p.o. once daily day -2 to day 10, C57BL/6 mice
[6] = 80 mg/kg p.o. once daily day -2 to day 10, C57BL/6 mice

Structure (SMILES) | cell-specificity of inhibition of proliferation [1] | inhibition of HUVEC proliferation ([2]; 4-hour preincubation, compound then removed for the rest of the stimulation period) | cytotoxicity (HUVEC morphology, floating dead cells) ([2]; 100% confluent monolayers, culture periods with the compound) | cytotoxicity (cell death, floating cells in the media) ([2]; HUVEC, 4-hour preincubation period) | inhibition of HUVEC proliferation ([2]; continuous presence of the compound, 10% confluent monolayers) | inhibition of HUVEC proliferation ([2]; continuous presence of the compound, 50% confluent monolayers) | inhibition of HUVEC proliferation ([2]; continuous presence of the compound, 100% confluent monolayers) | neovascularisation in mice (percent inhibition) ([3]; 5 mg/kg/day orally) [%] | neovascularisation in mice (percent inhibition) ([3]; 20 mg/kg/day orally) [%] | No Effect Level (NOEL) ([3]; oral, neovascularisation in mice) [mglkg/day] | Colony Count (B16 melanoma lung colonies) [4, 5] | % Reduction of melanoma lung colonies vs vehicle ([4]; 60 mg/kg p.o.) | Colony Count (B16 melanoma lung colonies) [4, 6] | % Reduction of melanoma lung colonies vs vehicle ([4]; 80 mg/kg p.o.) | tolerability (signs of toxicity, body weight gain) ([3]; mice, selected dose levels, oral)
O=C(Nc1ccc([N+](=O)[O-])cc1)Nc1ccc(Br)cc1-c1nnn[nH]1 [Compound a, N-4-Nitrophenyl-N′-[4-bromo-2-(1-H-tetrazol-5-yl)phenyl]urea] | more potent inhibitor of the bFGF-induced HUVEC and fibroblast proliferation | not able to inhibit HUVEC proliferation significantly | no change of HUVEC morphology and the amount of floating dead cells | No signs of any cytotoxicity | clear inhibitory effect | slightly observed | no effect | 15 | 28 | 5 | 64.68 ± 2.65 | 17% and 17.38% | 61.85 ± 2.89 | 21% | –
O=C(Nc1cc(C(F)(F)F)cc(C(F)(F)F)c1)Nc1ccc(Br)cc1-c1nnn[nH]1 [Compound b, N-3,5-Di(trifluoromethyl)phenyl-N′-[4-bromo-2-(1-H-tetrazol-5-yl)phenyl]urea] | – | – | – | – | – | – | – | – | – | – | 41.55 ± 9.55 | 36% and 36.45% | 36.65 ± 5.82 | 44% and 43.97% | no signs of toxicity or changes of the body weight gain
